According to patent publication US11466006B2, “Dual selective PI3 delta and gamma kinase inhibitors” (Rhizen Pharmaceuticals SA, priority 2013, dated 2022):
pEC50, pIC50: −log10 of the molar value.

Assays:
PI3Kδ = PI3Kδ (Homo sapiens, UniProt O00329); assay: Anti-FcεR1 induced CD63 expression in basophils from human whole blood; assay type: cell-based; parameters: Add 49 μl of patient's whole blood to each tube; endogenous in cells; host or cells: basophils in human whole blood; conditions: n=10, read-out: EC50 for FcεR1 (PI3K δ), CD63 positive basophils
Chain of PI3Kδ (O00329 whole entry): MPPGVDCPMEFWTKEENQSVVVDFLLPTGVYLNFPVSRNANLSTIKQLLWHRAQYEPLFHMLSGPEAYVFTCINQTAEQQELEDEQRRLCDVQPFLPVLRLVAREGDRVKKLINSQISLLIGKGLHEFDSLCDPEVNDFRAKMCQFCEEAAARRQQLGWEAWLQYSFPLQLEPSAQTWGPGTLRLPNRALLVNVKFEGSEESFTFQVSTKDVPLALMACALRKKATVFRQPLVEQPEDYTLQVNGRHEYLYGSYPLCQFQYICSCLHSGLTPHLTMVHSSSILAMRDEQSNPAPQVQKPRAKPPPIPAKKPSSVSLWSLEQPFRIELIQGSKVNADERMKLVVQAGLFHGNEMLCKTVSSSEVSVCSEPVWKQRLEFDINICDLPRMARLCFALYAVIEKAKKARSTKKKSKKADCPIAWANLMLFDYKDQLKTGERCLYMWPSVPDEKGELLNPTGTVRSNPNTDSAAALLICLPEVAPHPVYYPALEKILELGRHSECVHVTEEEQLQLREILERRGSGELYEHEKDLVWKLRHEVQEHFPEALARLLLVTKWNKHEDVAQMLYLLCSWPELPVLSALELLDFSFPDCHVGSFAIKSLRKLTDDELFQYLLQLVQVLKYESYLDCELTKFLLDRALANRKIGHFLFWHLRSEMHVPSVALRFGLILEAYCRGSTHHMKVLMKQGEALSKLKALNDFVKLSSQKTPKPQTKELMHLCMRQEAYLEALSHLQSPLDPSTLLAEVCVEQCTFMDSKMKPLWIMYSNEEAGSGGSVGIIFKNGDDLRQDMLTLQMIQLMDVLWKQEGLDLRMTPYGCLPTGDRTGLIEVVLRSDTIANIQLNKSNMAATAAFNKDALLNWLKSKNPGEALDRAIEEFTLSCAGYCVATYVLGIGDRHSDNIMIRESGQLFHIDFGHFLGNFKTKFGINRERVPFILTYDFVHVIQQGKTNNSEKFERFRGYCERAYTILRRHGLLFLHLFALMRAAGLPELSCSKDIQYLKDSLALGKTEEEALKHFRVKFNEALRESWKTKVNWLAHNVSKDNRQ
Chain of PI3Kδ (P27986 whole entry partner): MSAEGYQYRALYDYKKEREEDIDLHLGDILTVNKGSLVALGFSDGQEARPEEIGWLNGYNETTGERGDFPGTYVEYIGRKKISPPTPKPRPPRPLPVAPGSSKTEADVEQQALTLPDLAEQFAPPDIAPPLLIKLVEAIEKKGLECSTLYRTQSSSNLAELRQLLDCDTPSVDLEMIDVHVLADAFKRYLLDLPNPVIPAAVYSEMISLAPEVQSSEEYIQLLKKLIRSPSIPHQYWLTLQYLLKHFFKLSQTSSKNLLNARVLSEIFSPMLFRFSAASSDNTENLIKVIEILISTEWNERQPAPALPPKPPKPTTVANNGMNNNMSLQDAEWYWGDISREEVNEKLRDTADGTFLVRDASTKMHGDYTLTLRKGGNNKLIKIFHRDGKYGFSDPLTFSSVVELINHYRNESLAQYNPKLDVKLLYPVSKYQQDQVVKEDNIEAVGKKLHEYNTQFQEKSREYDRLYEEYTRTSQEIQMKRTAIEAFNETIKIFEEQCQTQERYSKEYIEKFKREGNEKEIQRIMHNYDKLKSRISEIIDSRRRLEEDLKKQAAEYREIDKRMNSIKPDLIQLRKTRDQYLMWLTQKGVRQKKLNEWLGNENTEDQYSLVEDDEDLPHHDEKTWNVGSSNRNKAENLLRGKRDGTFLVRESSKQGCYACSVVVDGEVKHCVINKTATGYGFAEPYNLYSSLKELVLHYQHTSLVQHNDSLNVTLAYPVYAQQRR
Experimental: PI3K δ and γ signalling in basophils manifested by an alteration of anti-FcεR1 or fMLP induced CD63 expression is a useful pharmacodynamic marker determined using the Flow2CAST® kit (Buhlmann Laboratories, Switzerland). Briefly, it involves the following steps: • Mix the anti-coagulated blood sample by inverting the venipuncture tube several times; • Prepare fresh and pyrogen-free 3.5 ml polypropylene or polystyrene tubes suitable for Flow Cytometry measurements; • Add 49 μl of patient's whole blood to each tube; • Add 1 μl of 10% DMSO (background) or compound (10% DMSO) to the assigned tubes and mix gently. Incubate at room temperature for 15 minutes; • Pipet 50 μl of the Stimulation buffer (background) or anti-FcεRI Ab or or fMLP to each tube; • Add 100 μl of Stimulation Buffer to each tube; • Mix gently. Add 20 μl Staining Reagent (1:1 mix of FITC-CD63 and PE-CCR3) to each tube; • Mix gently, cover the tubes and incubate for 15 minutes at 37° C. in a water bath. […]
Percent CD63 positive cells within the gated basophil population were determined in different treatment groups and normalized to vehicle control.

[1] = system: ovalbumin sensitized mice; assay: Murine asthma model (ovalbumin sensitized mice); assay type: in vivo, mouse; conditions: 3 mg/kg oral
Excerpt: Airway inflammation and hyper-responsiveness (AHR) are hallmarks and distinguishing features of bronchial asthma. Provocation of pre-sensitized mice with the same allergen induces airway inflammation with preferential eosinophilic infiltration and, as a consequence, AHR. Pulmonary eosinophilia and airway remodelling in conjunction with altered neural control of airway tone and airway epithelial desquamation may contribute to AHR in asthma. After the quarantine period, based on their body weights, mice were randomized and divided into four groups (n=7). Tails were marked with an indelible marking pen for identification. On day 0, weights were recorded and animals were sensitized with 100 μg of Ovalbumin and 10 mg of alum solution (0.2 mL) intraperitoneally. On day 7 and day 14, the above sensitization protocol was repeated. […] On day 24, 25, and 26, after the treatment with test compound by oral gavage, 30 mins later animals were exposed to 10% w/v Ovalbumin challenge. […] Forty eight hours after last OVA challenge, airway hyperresponsiveness was measured by whole body plethysmograph against cumulative doses of methacholine challenge (2.5, 10, 50 and 100 mg/ml), after measuring the airway response, blood samples and BAL fluid was collected. Samples were analysed for total cell count by using neubuear chamber under microscope and differential leukocyte count was done manually.

[2] = system: T-lymphoma (MOLT-4, Jurkat, CCRF-CEM, Hut-78 & HuT-102) cells; assay: In vitro cell proliferation assay in leukemic cell lines (MTT); assay type: cell-based
Experimental: Growth inhibition assays were carried out using 10% FBS supplemented media. Cells were seeded at a concentration of 5000-20,000 cells/well in a 96-well plate. Test compounds at a concentration range from 0.01 to 10000 nM were added after 24 h. Growth was assessed using the 3-[4,5-dimethylthiazol-2-yl]-2,5-diphenyltetrazolium bromide (MTT) dye reduction test at 0 h (prior to the addition of the test compound) and 72 h after the addition of test compound. Absorbance was read on a Fluostar Optima (BMG Labtech, Germany) at a wave length of 450 nm. Data were analysed using GraphPad Prism and percent inhibition due to the test compound compared to the control was calculated accordingly.

pAKT = assay: Inhibition of AKT phosphorylation in leukemic cell lines (Western blot); assay type: cell-based; conditions: MOLT-4, Jurkat, CCRF-CEM, Hut-78 & HuT-102; 48 h; read-out: EC50, reduction in pAKT expression
Experimental: MOLT-4, Jurkat, CCRF-CEM, Hut-78, HuT-102, Sez4 and HH cells were incubated with desired concentrations of compound for 48 h. Cells were lysed and pAKT determined by Western Blotting. Bands were quantified using ImageJ and normalized to actin.

PI3K delta = molecular target: T1, PI3K delta (Homo sapiens, UniProt O00329); assay: Anti-IgM induced B-cell proliferation (PI3Kδ selectivity); assay type: cell-based; conditions: read-out: Cellular IC50 PI3K delta (anti-IgM induced human B-cell proliferation)
T1 construct: Isolated B-cells were re-suspended to 1.0×10^6 cells per ml; endogenous in cells; host or cells: isolated human B cells
T1 sequence (O00329 whole entry): as the sequence (O00329 whole entry) above
T1 sequence (P27986 whole entry partner): as the sequence (P27986 whole entry partner) above
Experimental: The objective of this study was to assess the inhibitory potential of Compound A1 on anti-IgM induced human B-cell proliferation.
• Isolated B-cells were re-suspended to 1.0×10^6 cells per ml. 100 μl of cell suspension was added to each well of a 96-well plate. Triplicates were maintained. • 50 μl of drug dilution was added and mixed well. A DMSO blank and inducer blank were maintained. • Treated plate was incubated for 30 min at 37° C., 5% CO2 and then 50 μl of 4× inducer was added and mixed by pipetting. • Plate was incubated at 37° C., 5% CO2 for 72 h. • Media was aspirated and 150 μl of DMSO was added to dissolve the formazan crystals. • Absorbance was read at A560 and A640 nm.

CC[C@H](Nc1ncnc2[nH]cnc12)c1oc2ccccc2c(=O)c1-c1cccc(F)c1 [Compound A1, (S)-2-(1-(9H-purin-6-ylamino)propyl)-3-(3-fluorophenyl)-4H-chromen-4-one]
pEC50 (PI3Kδ): > 7.40
airway hyperresponsiveness against methacholine challenge [1]: significant reduction
eosinophil infiltration into the bronchoalveolar lavage fluid [1]: significant inhibition
apparent cytotoxicity ([2]; 72-h incubation period, up to 10 μM): did not display any apparent cytotoxicity
GI50 ([2]; MOLT-4, Jurkat, CCRF-CEM, Hut-78 & HuT-102, 72 h, MTT, read-out: GI50, reduction in T-lymphoma cell viability): 1000 to 5000 nM
pEC50 (pAKT): 5.70 to 6.30
pIC50 (PI3K delta): 7.42
